Measurements taken from patent publication US11046662B2, “2-aryl-4-hydroxy-1,3-thiazole derivatives useful as TRPM8-inhibitors in treatment of neuralgia, pain, COPD and asthma” (DOMPÉ FARMACEUTICI S.P.A., priority 2014, dated 2021).

Tests used:
[1] = molecular target: CYP1A2 (Homo sapiens (Human), UniProt P05177); assay: CYP450 Inhibition; assay type: in vitro ADME; conditions: at 10 μM
[2] = molecular target: human Opioid μ (MOP) (Homo sapiens (Human), UniProt P35372); assay: GPCR radioligand binding assay; conditions: tested at 10 μM in duplicate
[3] = molecular target: human Dopamine D3 (Homo sapiens (Human), UniProt P35462); assay: GPCR radioligand binding assay; conditions: tested at 10 μM in duplicate
[4] = physchem
[5] = molecular target: human Opioid δ2 (DOP) (Homo sapiens (Human), UniProt P41143); assay: GPCR radioligand binding assay; conditions: tested at 10 μM in duplicate
[6] = molecular target: human Opioid NOP (ORL1) (Homo sapiens (Human), UniProt P41146); assay: GPCR radioligand binding assay; conditions: tested at 10 μM in duplicate
[7] = molecular target: human Adrenergic α1A (Homo sapiens (Human), UniProt P35348); assay: GPCR radioligand binding assay; conditions: tested at 10 μM in duplicate
[8] = molecular target: human Adrenergic β2 (Homo sapiens (Human), UniProt P07550); assay: GPCR radioligand binding assay; conditions: tested at 10 μM in duplicate
[9] = Rat Plasma Stability; assay type: in vitro ADME
[10] = molecular target: human Histamine H2 (Homo sapiens (Human), UniProt P25021); assay: GPCR radioligand binding assay; conditions: tested at 10 μM in duplicate
Sequence of human Histamine H2 (P25021 whole entry): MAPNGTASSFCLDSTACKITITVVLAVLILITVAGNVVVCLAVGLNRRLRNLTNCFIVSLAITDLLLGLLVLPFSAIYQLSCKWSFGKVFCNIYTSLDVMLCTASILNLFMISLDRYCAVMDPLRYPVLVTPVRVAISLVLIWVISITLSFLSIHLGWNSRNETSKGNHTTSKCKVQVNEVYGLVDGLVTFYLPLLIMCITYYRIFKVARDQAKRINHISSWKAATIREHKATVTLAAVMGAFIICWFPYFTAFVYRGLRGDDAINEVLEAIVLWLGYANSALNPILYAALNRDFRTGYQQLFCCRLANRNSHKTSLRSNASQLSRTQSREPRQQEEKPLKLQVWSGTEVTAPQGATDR

[11] = molecular target: human TRPM8 (Homo sapiens (Human), UniProt Q7Z2W7); assay: HTS cellular-based calcium assay for human TRPM8 antagonists (FLIPR TETRA); conditions: HEK293/hTRPM8 cells, agonist Cooling Agent 10 at EC80, Ca2+ fluorescence
Sequence of human TRPM8 (Q7Z2W7 whole entry): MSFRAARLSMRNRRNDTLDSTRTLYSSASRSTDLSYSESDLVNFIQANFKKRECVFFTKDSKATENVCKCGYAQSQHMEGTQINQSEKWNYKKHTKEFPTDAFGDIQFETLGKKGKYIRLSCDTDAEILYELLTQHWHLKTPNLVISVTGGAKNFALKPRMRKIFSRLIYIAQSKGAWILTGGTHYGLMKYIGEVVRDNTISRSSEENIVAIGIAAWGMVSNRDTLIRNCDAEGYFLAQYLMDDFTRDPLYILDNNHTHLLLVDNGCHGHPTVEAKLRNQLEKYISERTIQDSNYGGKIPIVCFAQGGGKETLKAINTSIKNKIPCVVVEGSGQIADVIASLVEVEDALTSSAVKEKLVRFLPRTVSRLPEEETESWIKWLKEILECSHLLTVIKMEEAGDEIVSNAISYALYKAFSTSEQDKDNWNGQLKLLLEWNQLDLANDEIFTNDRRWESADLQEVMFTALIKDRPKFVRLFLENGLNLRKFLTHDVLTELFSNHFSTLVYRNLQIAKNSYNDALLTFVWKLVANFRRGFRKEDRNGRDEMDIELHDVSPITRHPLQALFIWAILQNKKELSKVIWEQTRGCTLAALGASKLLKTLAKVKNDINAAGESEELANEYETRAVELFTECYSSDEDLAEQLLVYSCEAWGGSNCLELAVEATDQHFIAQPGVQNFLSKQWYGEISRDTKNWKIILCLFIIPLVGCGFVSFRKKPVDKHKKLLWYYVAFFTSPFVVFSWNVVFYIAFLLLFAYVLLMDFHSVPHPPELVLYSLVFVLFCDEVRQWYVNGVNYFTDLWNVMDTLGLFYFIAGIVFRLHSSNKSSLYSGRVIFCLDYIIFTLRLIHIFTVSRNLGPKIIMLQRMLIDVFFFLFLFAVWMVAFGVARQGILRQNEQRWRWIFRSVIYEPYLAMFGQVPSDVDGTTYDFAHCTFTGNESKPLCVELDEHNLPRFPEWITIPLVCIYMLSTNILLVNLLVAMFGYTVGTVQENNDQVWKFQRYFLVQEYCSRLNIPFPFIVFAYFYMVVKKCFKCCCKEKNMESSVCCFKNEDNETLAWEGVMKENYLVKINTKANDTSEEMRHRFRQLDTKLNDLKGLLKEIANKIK

[12] = molecular target: CYP2D6 (Homo sapiens (Human), UniProt P10635); assay: CYP450 Inhibition; assay type: in vitro ADME; conditions: at 10 μM
[13] = molecular target: human Opioid K (KOP) (Homo sapiens (Human), UniProt P41145); assay: GPCR radioligand binding assay; conditions: tested at 10 μM in duplicate
[14] = molecular target: human Bradykinin B1 (Homo sapiens (Human), UniProt P46663); assay: GPCR radioligand binding assay; conditions: tested at 10 μM in duplicate
Sequence of human Bradykinin B1 (P46663 whole entry): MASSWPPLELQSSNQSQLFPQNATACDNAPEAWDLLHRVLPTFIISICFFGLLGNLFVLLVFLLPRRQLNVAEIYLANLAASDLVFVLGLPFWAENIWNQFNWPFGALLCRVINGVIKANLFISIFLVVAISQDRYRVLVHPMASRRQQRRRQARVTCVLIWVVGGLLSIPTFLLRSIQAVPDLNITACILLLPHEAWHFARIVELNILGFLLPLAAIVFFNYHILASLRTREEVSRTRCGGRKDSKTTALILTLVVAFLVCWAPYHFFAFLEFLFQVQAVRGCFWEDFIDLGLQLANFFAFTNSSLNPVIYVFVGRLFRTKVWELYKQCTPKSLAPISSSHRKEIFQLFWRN

[15] = molecular target: human Cannabinoid CB1 (Homo sapiens (Human), UniProt P21554); assay: GPCR radioligand binding assay; conditions: tested at 10 μM in duplicate
[16] = molecular target: CYP2C9 (Homo sapiens (Human), UniProt P11712); assay: CYP450 Inhibition; assay type: in vitro ADME; conditions: at 10 μM
[17] = molecular target: human Serotoninergic 5-HT1A (Homo sapiens (Human), UniProt P08908); assay: GPCR radioligand binding assay; conditions: tested at 10 μM in duplicate
Sequence of human Serotoninergic 5-HT1A (P08908 whole entry): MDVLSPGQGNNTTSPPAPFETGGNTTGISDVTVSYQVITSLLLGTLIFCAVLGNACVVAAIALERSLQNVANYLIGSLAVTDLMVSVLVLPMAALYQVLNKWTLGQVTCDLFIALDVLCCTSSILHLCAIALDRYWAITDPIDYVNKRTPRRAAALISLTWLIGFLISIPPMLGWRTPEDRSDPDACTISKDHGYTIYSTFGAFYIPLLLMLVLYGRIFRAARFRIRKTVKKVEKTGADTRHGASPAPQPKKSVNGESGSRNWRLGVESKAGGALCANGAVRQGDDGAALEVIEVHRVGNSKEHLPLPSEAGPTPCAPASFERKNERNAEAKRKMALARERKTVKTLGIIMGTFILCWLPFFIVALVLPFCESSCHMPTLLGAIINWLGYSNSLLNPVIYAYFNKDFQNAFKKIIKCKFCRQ

[18] = molecular target: human Muscarinic M3 (Homo sapiens (Human), UniProt P20309); assay: GPCR radioligand binding assay; conditions: tested at 10 μM in duplicate
[19] = molecular target: human Muscarinic M2 (Homo sapiens (Human), UniProt P08172); assay: GPCR radioligand binding assay; conditions: tested at 10 μM in duplicate
Sequence of human Muscarinic M2 (P08172 whole entry): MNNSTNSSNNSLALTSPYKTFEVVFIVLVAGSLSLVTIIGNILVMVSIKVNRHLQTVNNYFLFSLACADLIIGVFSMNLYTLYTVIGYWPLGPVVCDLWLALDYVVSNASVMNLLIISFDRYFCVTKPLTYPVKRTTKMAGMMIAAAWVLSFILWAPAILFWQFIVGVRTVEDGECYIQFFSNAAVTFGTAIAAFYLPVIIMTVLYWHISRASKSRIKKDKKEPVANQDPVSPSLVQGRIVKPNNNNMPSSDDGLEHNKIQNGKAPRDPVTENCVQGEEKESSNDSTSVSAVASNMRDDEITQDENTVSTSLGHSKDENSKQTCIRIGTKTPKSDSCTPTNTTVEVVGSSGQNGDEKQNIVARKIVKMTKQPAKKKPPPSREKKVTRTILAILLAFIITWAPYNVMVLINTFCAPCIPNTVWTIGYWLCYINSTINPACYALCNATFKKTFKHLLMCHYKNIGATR

[20] = test system: cold allodynia; assay: Chronic constriction model of pain, cold allodynia (drop of acetone); assay type: in vivo, male Sprague-Dawley rats; conditions: oral 10 mg/kg
Protocol: (§1) Neuropathic pain behavior will be induced by ligation of the sciatic nerve according to the method described by Bennett G J et al., Pain. 33: 87-107, 1988. Briefly, male Sprague-Dawley rats will be anaesthetized (100 mg/kg ketamine and 10 mg/kg xylazine i.p.) and the left sciatic nerve will be exposed at the level of the thigh by blunt dissection through the biceps femoris. Proximal to the sciatic's trifurcation, about 12 mm of nerve will be freed of adhering tissue and four ligatures will be loosely tied around it with about 1 mm spacing so that the epineural circulation will be preserved. The length of nerve thus affected was 6-8 mm long. The animals will be allowed to recover and used the day after the surgery. Sham animals represent rats operated but not ligated.
(§2) All data were presented as the mean±SEM. Analysis of data was conducted using GraphPad Prism 4.01. Statistical analysis was performed by two-way ANOVA followed by Dunnett's test for multiple comparisons, as appropriate. Statistical significance was set at p<0.05.

[21] = test system: human cytochrome isoform; assay: Effect towards human cytochrome isoforms; assay type: in vitro ADME; conditions: at the maximal concentration of 10 μM
[22] = test system: mechanical allodynia; assay: Chronic constriction model of pain, mechanical allodynia (Dynamic Plantar Aesthesiometer); assay type: in vivo, male Sprague-Dawley rats; conditions: oral 10 mg/kg
Protocol: as §1, §2

[23] = molecular target: CYP3A4 (Homo sapiens (Human), UniProt P08684); assay: CYP450 Inhibition; assay type: in vitro ADME; conditions: at 10 μM
Sequence of CYP3A4 (P08684 whole entry): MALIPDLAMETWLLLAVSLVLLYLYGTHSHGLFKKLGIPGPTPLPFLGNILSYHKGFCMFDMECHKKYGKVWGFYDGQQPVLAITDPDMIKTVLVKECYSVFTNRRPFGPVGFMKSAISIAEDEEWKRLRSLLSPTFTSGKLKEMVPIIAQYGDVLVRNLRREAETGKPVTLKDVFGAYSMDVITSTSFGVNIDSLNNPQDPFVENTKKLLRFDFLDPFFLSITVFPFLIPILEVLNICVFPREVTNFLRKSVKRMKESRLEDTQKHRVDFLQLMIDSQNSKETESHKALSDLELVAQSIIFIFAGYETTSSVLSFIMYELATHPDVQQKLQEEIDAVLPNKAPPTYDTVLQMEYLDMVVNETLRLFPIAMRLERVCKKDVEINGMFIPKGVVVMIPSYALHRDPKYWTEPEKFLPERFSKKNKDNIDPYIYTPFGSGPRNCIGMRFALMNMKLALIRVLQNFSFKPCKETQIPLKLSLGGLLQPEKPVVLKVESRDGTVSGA

[24] = molecular target: TRPV1 (Homo sapiens (Human), UniProt Q8NER1); assay: TRPV1 antagonist calcium influx assay; assay type: cell-based; conditions: agonist capsaicin = 100%, ruthenium red = 0
Source text: The signal elicited in the presence of the positive control agonist (capsaicin) was set to 100% and the signal in the presence of the antagonist (ruthenium red) was set to 0. […] The signal elicited in the presence of the positive control agonist (GSK1016790A) was set to 100% and the signal in the presence of the antagonist (ruthenium red) was set to 0. […] The signal elicited in the presence of the positive control agonist (allyl isothiocyanate, AITC) was set to 100% and the signal in the presence of the antagonist (ruthenium red) was set to 0.

[25] = Plasma Protein Binding, human; assay type: in vitro ADME
[26] = Plasma Protein Binding, rat; assay type: in vitro ADME
[27] = molecular target: human NK1 (Homo sapiens (Human), UniProt P25103); assay: GPCR radioligand binding assay; conditions: tested at 10 μM in duplicate
[28] = molecular target: human Dopamine D2S (Homo sapiens (Human), UniProt P14416); assay: GPCR radioligand binding assay; conditions: tested at 10 μM in duplicate
[29] = molecular target: human Adrenergic α2A (Homo sapiens (Human), UniProt P08913); assay: GPCR radioligand binding assay; conditions: tested at 10 μM in duplicate
Sequence of human Adrenergic α2A (P08913 whole entry): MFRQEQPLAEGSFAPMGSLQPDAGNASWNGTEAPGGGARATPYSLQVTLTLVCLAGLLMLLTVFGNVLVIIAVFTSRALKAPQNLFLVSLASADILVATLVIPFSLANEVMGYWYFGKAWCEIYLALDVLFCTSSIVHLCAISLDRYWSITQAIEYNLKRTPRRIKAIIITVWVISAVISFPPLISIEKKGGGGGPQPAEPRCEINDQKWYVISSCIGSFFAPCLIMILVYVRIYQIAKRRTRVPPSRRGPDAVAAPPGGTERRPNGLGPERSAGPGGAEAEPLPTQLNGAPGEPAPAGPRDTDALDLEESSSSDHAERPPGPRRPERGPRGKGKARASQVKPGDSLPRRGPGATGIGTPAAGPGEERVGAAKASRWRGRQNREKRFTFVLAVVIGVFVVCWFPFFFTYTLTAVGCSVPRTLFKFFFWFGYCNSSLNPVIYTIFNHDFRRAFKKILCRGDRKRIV

[30] = molecular target: human Cannabinoid CB2 (Homo sapiens (Human), UniProt P34972); assay: GPCR radioligand binding assay; conditions: tested at 10 μM in duplicate
[31] = Pharmacokinetic profile, intravenous and oral administration; assay type: in vivo
Protocol: The ADME properties and the pharmacokinetic profile of compound 2 were evaluated.

[32] = molecular target: human Histamine H1 (Homo sapiens (Human), UniProt P35367); assay: GPCR radioligand binding assay; conditions: tested at 10 μM in duplicate
[33] = molecular target: hERG channel (Homo sapiens (Human), UniProt Q12809); assay: hERG inhibition
Sequence of hERG channel (Q12809 whole entry): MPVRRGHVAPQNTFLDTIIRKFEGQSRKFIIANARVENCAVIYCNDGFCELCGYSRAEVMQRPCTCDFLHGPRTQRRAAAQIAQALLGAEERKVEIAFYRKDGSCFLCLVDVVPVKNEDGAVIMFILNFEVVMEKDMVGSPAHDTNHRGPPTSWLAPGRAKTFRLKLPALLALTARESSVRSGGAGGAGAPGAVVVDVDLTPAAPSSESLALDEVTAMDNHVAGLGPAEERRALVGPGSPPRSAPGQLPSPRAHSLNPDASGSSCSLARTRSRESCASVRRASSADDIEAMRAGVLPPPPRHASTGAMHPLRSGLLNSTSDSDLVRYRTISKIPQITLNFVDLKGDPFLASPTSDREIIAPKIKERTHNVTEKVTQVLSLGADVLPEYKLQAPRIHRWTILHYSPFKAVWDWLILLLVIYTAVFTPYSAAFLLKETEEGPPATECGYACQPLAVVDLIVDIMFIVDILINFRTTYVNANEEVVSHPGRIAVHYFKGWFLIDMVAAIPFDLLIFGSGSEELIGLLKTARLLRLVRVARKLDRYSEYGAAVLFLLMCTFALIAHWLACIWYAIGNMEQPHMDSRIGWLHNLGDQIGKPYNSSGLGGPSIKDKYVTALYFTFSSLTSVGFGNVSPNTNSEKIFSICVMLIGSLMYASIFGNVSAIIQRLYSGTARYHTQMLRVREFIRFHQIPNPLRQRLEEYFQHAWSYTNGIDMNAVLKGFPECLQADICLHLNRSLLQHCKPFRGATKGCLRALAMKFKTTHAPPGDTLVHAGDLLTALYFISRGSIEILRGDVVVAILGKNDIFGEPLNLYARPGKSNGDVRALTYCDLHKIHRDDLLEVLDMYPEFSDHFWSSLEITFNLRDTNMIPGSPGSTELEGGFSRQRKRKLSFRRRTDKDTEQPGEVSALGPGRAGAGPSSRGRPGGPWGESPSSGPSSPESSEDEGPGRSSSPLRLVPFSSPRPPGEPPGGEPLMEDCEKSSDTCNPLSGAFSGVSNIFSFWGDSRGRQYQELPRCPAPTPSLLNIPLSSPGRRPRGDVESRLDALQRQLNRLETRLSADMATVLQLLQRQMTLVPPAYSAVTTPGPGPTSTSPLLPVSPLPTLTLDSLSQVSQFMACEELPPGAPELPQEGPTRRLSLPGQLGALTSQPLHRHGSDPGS

[34] = CLint (rat); assay type: in vitro ADME
[35] = molecular target: human Bradykinin B2 (Homo sapiens (Human), UniProt P30411); assay: GPCR radioligand binding assay; conditions: tested at 10 μM in duplicate
[36] = molecular target: human Adrenergic β1 (Homo sapiens (Human), UniProt P08588); assay: GPCR radioligand binding assay; conditions: tested at 10 μM in duplicate
[37] = molecular target: CYP2C19 (Homo sapiens (Human), UniProt P33261); assay: CYP450 Inhibition; assay type: in vitro ADME; conditions: at 10 μM
[38] = day 7 and day 14, 3 hours and 5 hours post-dose
[39] = day 7 and day 14 after nerve injury, 3 hours after treatment
[40] = oral administration, PO 10 mg/kg
[41] = plasma, intravenous administration, IV 5 mg/kg
[42] = plasma, oral administration, PO 10 mg/kg

Question: For `CCC(=O)c1sc(-c2cccc(F)c2)nc1[O-].[Na+]` [Compound 2, sodium 2-(3-fluorophenyl)-5-propanoyl-1,3-thiazol-4-olate], which IC50 [1] is on record?
Answer: The IC50 was > 30 µM.

Question: What about the “activity towards human Opioid μ (MOP)” value [2] of the same compound?
Answer: Its value is “inactive”.

Question: What about the “activity towards human Dopamine D3” value [3] of the same compound?
Answer: The value was “inactive”.

Question: What about the pKa [4] of the same compound?
Answer: Its pKa is 4.18.

Question: And the “activity towards human Opioid δ2 (DOP)” value [5]?
Answer: Its value is “inactive”.

Question: What about the “activity towards human Opioid NOP (ORL1)” value [6] of the same compound?
Answer: The value was “inactive”.

Question: And the “activity towards human Adrenergic α1A” value [7]?
Answer: The value was “inactive”.

Question: What about the “activity towards human Adrenergic β2” value [8] of the same compound?
Answer: Its value is “inactive”.

Question: And the “Rat Plasma Stability (% remaining)” value ([9]; at 30 min)?
Answer: Its value is 98.2%.

Question: And the “Rat Plasma Stability (% remaining)” value ([9]; at 60 min)?
Answer: Its value is 80.3%.

Question: What about the “activity towards human Histamine H2” value [10] of the same compound?
Answer: The value was “inactive”.

Question: What about the IC50 [11] of the same compound?
Answer: Its IC50 is 0.028 µM.

Question: And the IC50 [12]?
Answer: The IC50 was > 30 µM.

Question: What about the “activity towards human Opioid K (KOP)” value [13] of the same compound?
Answer: The value was “inactive”.

Question: And the “activity towards human Bradykinin B1” value [14]?
Answer: The value was “inactive”.

Question: And the “activity towards human Cannabinoid CB1” value [15]?
Answer: The value was “inactive”.

Question: What about the IC50 [16] of the same compound?
Answer: Its IC50 is > 30 µM.

Question: And the “activity towards human Serotoninergic 5-HT1A” value [17]?
Answer: Its value is “inactive”.

Question: What about the “activity towards human Muscarinic M3” value [18] of the same compound?
Answer: Its value is “inactive”.

Question: What about the “activity towards human Muscarinic M2” value [19] of the same compound?
Answer: The value was “inactive”.

Question: What about the “effect on cold allodynia” value [20, 38] of the same compound?
Answer: Its value is “significantly attenuated”.

Question: And the “maximal activity, inhibition of cold allodynia” value [20, 39]?
Answer: Its value is “about 50%”.

Question: And the “effect towards any human cytochrome isoform” value [21]?
Answer: The value was “no effect”.

Question: And the “effect on mechanical allodynia” value [22, 38]?
Answer: Its value is “significantly attenuated”.

Question: What about the “maximal activity, inhibition of mechanical allodynia” value [22, 39] of the same compound?
Answer: Its value is “about 50%”.

Question: What about the IC50 [23] of the same compound?
Answer: Its IC50 is > 30 µM.

Question: And the IC50 [24]?
Answer: The IC50 was > 10 µM.

Question: What about the fraction unbound [25] of the same compound?
Answer: Its fraction unbound is 0.0129.

Question: And the fraction unbound [26]?
Answer: The fraction unbound was 0.025.

Question: What about the “activity towards human NK1” value [27] of the same compound?
Answer: Its value is “inactive”.

Question: What about the “activity towards human Dopamine D2S” value [28] of the same compound?
Answer: The value was “inactive”.

Question: What about the “activity towards human Adrenergic α2A” value [29] of the same compound?
Answer: Its value is “inactive”.

Question: And the “activity towards human Cannabinoid CB2” value [30]?
Answer: The value was “inactive”.

Question: What about the “Vds” value ([31]; intravenous administration, IV 5 mg/kg) of the same compound?
Answer: Its value is 1.78 L/kg.

Question: What about the “CL” value [31, 40] of the same compound?
Answer: The value was 6.41 mL/min/kg.

Question: And the “t1/2” value [31, 40]?
Answer: The value was 2.94 h.

Question: And the clearance [31, 41]?
Answer: Its clearance is 6.81 mL/min/kg.

Question: And the half-life [31, 41]?
Answer: The half-life was 3.01 h.

Question: What about the AUC [31, 42] of the same compound?
Answer: The AUC was 26100 ng·h/mL.

Question: What about the Cmax [31, 42] of the same compound?
Answer: The Cmax was 10300 ng/mL.

Question: What about the Tmax [31, 42] of the same compound?
Answer: Its Tmax is 0.25 h.

Question: What about the half-life [31, 42] of the same compound?
Answer: Its half-life is 2.94 h.

Question: What about the bioavailability ([31]; plasma, oral administration, PO 10 mg/kg vs IV 5 mg/kg) of the same compound?
Answer: The bioavailability was 100%.

Question: What about the “activity towards human Histamine H1” value [32] of the same compound?
Answer: The value was “inactive”.

Question: What about the IC50 [33] of the same compound?
Answer: The IC50 was > 1000 µM.

Question: And the “effect towards hERG channel” value [33]?
Answer: Its value is “none effect”.

Question: And the microsomal CLint [34]?
Answer: The microsomal CLint was 29.4 µL/min/mg.

Question: What about the “activity towards human Bradykinin B2” value [35] of the same compound?
Answer: Its value is “inactive”.

Question: And the “activity towards human Adrenergic β1” value [36]?
Answer: The value was “inactive”.

Question: What about the IC50 [37] of the same compound?
Answer: Its IC50 is > 30 µM.
